Our source for the DC50 values is US11691972B2, “Compounds for targeted degradation of BRD9” (C4 Therapeutics, Inc., priority 2020, dated 2023).

The target of the assay is T1, BRD9 (Homo sapiens, UniProt Q9H8M2).
T1 sequence (Q9H8M2 1-597): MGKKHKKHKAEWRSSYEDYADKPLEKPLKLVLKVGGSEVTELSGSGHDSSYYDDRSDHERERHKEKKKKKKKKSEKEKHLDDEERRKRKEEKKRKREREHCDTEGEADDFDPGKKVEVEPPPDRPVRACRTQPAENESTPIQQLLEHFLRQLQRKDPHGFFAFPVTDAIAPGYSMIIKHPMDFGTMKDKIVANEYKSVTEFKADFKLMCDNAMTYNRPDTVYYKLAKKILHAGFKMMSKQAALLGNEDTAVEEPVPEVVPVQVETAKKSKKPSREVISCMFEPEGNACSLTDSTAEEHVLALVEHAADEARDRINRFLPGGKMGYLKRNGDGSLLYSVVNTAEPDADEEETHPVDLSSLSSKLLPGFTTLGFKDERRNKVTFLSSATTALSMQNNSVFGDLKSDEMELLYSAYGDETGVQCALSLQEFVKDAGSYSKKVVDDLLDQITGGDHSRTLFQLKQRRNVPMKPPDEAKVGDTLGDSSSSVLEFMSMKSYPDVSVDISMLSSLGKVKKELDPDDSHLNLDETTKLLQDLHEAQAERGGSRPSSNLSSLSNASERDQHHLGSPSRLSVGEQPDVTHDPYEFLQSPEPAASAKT
The assay is described as follows: HiBiT BRD9 degradation assay in 293T.166 (BRD9-HiBiT) cells. The class given is cell-based. More on the design: endogenously expressing BRD9 with HiBiT fusion tag via CRISPR; host or cells: 293T.166 (BRD9-HiBiT), also expressing LgBiT ectopically. Conditions: 293T.166 cells, 2.0 hours, class symbols, read-out: HiBiT-Degradation 293T.166 BRD9 2.0 hours (DC50). The essentials: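 Luminescence from the Nano-Glo HiBiT lytic reagent quantified BRD9 loss after compounds (top 10 μM, half-log, 11 points, duplicates) were incubated 2 h at 37° C. with 10,000 293T.166 BRD9-HiBiT/LgBiT cells per well, with controls lacking compound or lacking reagent.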
(In general: With HiBiT, luminescence reflects the tagged protein that the partner subunit can reach.)

Where two headings read alike, the source gives them in different places.

As usually defined, the DC50 is the concentration at which degradation of the target reaches its halfway point. As for `COc1cc(-c2cn(C)c(=O)c3[nH]ncc23)cc(Cl)c1CN1CCc2c(CC3CCN(c4ccc(NC5CCC(=O)NC5=O)cc4F)CC3)cccc2C1` (stereo not shown) [Compound 105, 3-[4-[4-[[2-[[2-chloro-6-methoxy-4-(6-methyl-7-oxo-1H-pyrazolo[3,4-c]pyridin-4-yl)phenyl]methyl]-3,4-dihydro-1H-isoquinolin-5-yl]methyl]-1-piperidyl]-3-fluoro-anilino]piperidine-2,6-dione], the DC50 (Table 1) was below 100 nM. As to `COc1cc(-c2cn(C)c(=O)c3[nH]ncc23)cc(Cl)c1CN1CCC(CC(=O)N2CCC(c3ccc(NC4CCC(=O)NC4=O)cc3)CC2)CC1` (stereo not shown) [Compound 43], where the note is “Table 1”, the DC50 is below 100 nM. Regarding `COc1cc(-c2cn(C)c(=O)c3[nH]ncc23)cc(OC)c1CN1CCC(C2CCN(c3ccc(NC4CCC(=O)NC4=O)cc3)CC2)CC1` (stereo not shown) [Compound 70, 3-[4-[4-[1-[[2,6-dimethoxy-4-(6-methyl-7-oxo-1H-pyrazolo[3,4-c]pyridin-4-yl)phenyl]methyl]-4-piperidyl]-1-piperidyl]anilino]piperidine-2,6-dione], for the setting “Table 1”, the 50% degradation concentration (DC50) was below 100 nM.

`COc1cc(-c2cn(C)c(=O)c(C)c2C)cc(OC)c1CN1CCN(C(=O)CC2CCN(c3ccc(NC4CCC(=O)NC4=O)cc3C(F)(F)F)CC2)CC1` (stereo not shown) [Compound 61]: for the setting “Table 1”, the DC50 is below 100 nM. On to `COc1cc(-c2cn(C)c(=O)c3ccccc23)cc(OC)c1CN1CCN(C(=O)CC2CCN(c3ccc(NC4CCC(=O)NC4=O)cc3C(F)(F)F)CC2)CC1` (stereo not shown) [Compound 62], for which, under “Table 1”, the 50% degradation concentration (DC50) was below 100 nM. The same measure, in the same setting: the figure for `Cn1cc(-c2cc(Cl)c(C(=O)N3CCN(C(=O)CN4CCC(c5ccc(NC6CCC(=O)NC6=O)cc5)CC4)CC3)cc2Cl)c2cn[nH]c2c1=O` (stereo not shown) [Compound 48] is 100 to 500 nM. For the compound `[2H]C([2H])([2H])n1cc(-c2ccc(CN3CCC(C4CCN(c5ccc(NC6CCC(=O)NC6=O)cc5F)CC4)CC3)c(OC(F)(F)F)c2)c2ccncc2c1=O` (stereo not shown) [Compound 252, 3-[3-fluoro-4-[4-[1-[[4-[1-oxo-2-(trideuteriomethyl)-2,7-naphthyridin-4-yl]-2-(trifluoromethoxy)phenyl]methyl]-4-piperidyl]-1-piperidyl]anilino]piperidine-2,6-dione], the DC50 (Table 2) was below 100 nM. For `COc1cc(-c2cn(C)c(=O)c3[nH]ncc23)cc(Cl)c1CN1CCC(CC(=O)N2CCC(c3ccc(NC4CCC(=O)NC4=O)cc3)CC2)C(F)(F)C1` (single isomer, unassigned) [Compound 203, 3-[4-[1-[2-[1-[[2-chloro-6-methoxy-4-(6-methyl-7-oxo-1H-pyrazolo[3,4-c]pyridin-4-yl)phenyl]methyl]-3,3-difluoro-4-piperidyl]acetyl]-4-piperidyl]anilino]piperidine-2,6-dione], under “Table 1”, the DC50 was below 100 nM. For the compound `COc1cc(-c2cn(C)c(=O)c3[nH]ncc23)cc(OC)c1CC1CCN(C(=O)CC2CCN(c3ccc(NC4CCC(=O)NC4=O)cc3)CC2)CC1` (stereo not shown) [Compound 159], the DC50 (Table 1) was below 100 nM.

With `COc1cc(-c2cn(C)c(=O)c3ccccc23)cc(OC)c1CN1CCN(C(=O)CN2CCC(c3ccc(NC4CCC(=O)NC4=O)cc3)CC2)CC1` (stereo not shown) [Compound 28], the DC50 (Table 1) was below 100 nM. With `COc1cc(-c2cn(C)c(=O)c3cnccc23)cc(Cl)c1C(=O)N1CCc2c(CN3CCC(c4ccc(NC5CCC(=O)NC5=O)cc4)C(F)(F)C3)cccc2C1` (stereo not shown) [Compound 236], under “Table 1”, the DC50 is below 100 nM.

Take `Cn1cc(-c2ccc(CN3CCC(C4CCN(c5ccc(NC6CCC(=O)NC6=O)cc5F)CC4)CC3)c(OC(F)(F)F)c2)c2ccncc2c1=O` (stereo not shown) [Compound 79]: the half-maximal degradation concentration (DC50) (Table 1) was below 100 nM.

For the compound `COc1cc(-c2cn(C)c(=O)c3cnccc23)cc(Cl)c1CN1CCC(CCC2CCN(c3ccc(NC4CCC(=O)NC4=O)cc3F)CC2)CC1` (stereo not shown) [Compound 150], the half-maximal degradation concentration (DC50) (Table 1) is below 100 nM. Still for that read-out and setting: the figure for `COc1cc(-c2cn(C)c(=O)c3cnccc23)cc(Cl)c1CN1CCC(N2CCN(c3ccc(NC4CCC(=O)NC4=O)cc3F)CC2)C(F)(F)C1` (single isomer, unassigned) [Compound 178, 3-[4-[4-[1-[[2-chloro-6-methoxy-4-(2-methyl-1-oxo-2,7-naphthyridin-4-yl)phenyl]methyl]-3,3-difluoro-4-piperidyl]piperazin-1-yl]-3-fluoro-anilino]piperidine-2,6-dione] is below 100 nM. Same read-out and setting: the figure for `COc1cc(-c2cn(C)c(=O)c3cnccc23)cc(Cl)c1CN1CCC(N2CCN(c3ccc(NC4CCC(=O)NC4=O)cc3F)CC2)C(F)(F)C1` (single isomer, unassigned) [Compound 179, 3-[4-[4-[1-[[2-chloro-6-methoxy-4-(2-methyl-1-oxo-2,7-naphthyridin-4-yl)phenyl]methyl]-3,3-difluoro-4-piperidyl]piperazin-1-yl]-3-fluoro-anilino]piperidine-2,6-dione] is below 100 nM; for `COc1cc(-c2cn(C)c(=O)c3ccccc23)cc(Cl)c1CN1CCC(N2CCC(c3ccc(NC4CCC(=O)NC4=O)cc3F)CC2)C(F)(F)C1` (stereo not shown) [Compound 202] it is below 100 nM; for `CN(C(=O)N1CCC(c2ccc(NC3CCC(=O)NC3=O)cc2)CC1)C1CCN(C(=O)c2ccc(-c3cn(C)c(=O)c4cc(F)ccc34)cc2OC(F)(F)F)CC1` (stereo not shown) [Compound 131] it is below 100 nM. The same measure, in the same setting: the figure for `COc1cc(-c2cn(C)c(=O)c3[nH]ncc23)cc(OC)c1C(=O)N1CCN(C(=O)CN2CCC(c3ccc(NC4CCC(=O)NC4=O)cc3)CC2)CC1` (stereo not shown) [Compound 46, 3-[4-[1-[2-[4-[2,6-dimethoxy-4-(6-methyl-7-oxo-1H-pyrazolo[3,4-c]pyridin-4-yl)benzoyl]piperazin-1-yl]-2-oxo-ethyl]-4-piperidyl]anilino]piperidine-2,6-dione] is below 100 nM. Turning to `COc1cc(-c2cn(C)c(=O)c3cnccc23)cc(Cl)c1C(=O)N1CCC(CCC2CCN(c3ccc(NC4CCC(=O)NC4=O)cc3C(F)(F)F)CC2)CC1` (stereo not shown) [Compound 242], for the setting “Table 1”, the DC50 is below 100 nM.

As to `COc1cc(-c2cn(C)c(=O)c3cnccc23)cc(Cl)c1CN1CCC(C2CCN(c3ccc(NC4CCC(=O)NC4=O)cc3F)CC2)C(F)(F)C1` (stereo not shown) [Compound 199], the DC50 (Table 1) is below 100 nM. For the compound `COc1cc(-c2cn(C)c(=O)c3[nH]ncc23)cc(OC)c1CN1CCN(C(=O)CN2CCC(c3ccc(NC4CCC(=O)NC4=O)cc3C(F)F)CC2)CC1` (stereo not shown) [Compound 11], under “Table 1”, the DC50 is below 100 nM.

In the case of `COc1cc(-c2cn(C)c(=O)c3[nH]ncc23)cc(OC)c1CNc1ccc(CC(=O)N2CCC(c3ccc(NC4CCC(=O)NC4=O)cc3)CC2)cc1` (stereo not shown) [Compound 165, 3-[4-[1-[2-[4-[[2,6-dimethoxy-4-(6-methyl-7-oxo-1H-pyrazolo[3,4-c]pyridin-4-yl)phenyl]methylamino]phenyl]acetyl]-4-piperidyl]anilino]piperidine-2,6-dione], the half-maximal degradation concentration (DC50) (Table 1) was below 100 nM. As to `COc1cc(-c2cn(C)c(=O)c3cnccc23)cc(F)c1CN1CCC(N(C)C(=O)N2CCC(c3ccc(NC4CCC(=O)NC4=O)cc3)CC2)C(F)(F)C1` (stereo not shown) [Compound 124], for the setting “Table 1”, the half-maximal degradation concentration (DC50) is below 100 nM. As for `CN(C(=O)N1CCC(c2ccc(NC3CCC(=O)NC3=O)cc2)CC1)C1CCN(Cc2ccc(-c3cn(C)c(=O)c4cc(F)ccc34)cc2OC(F)(F)F)CC1` (stereo not shown) [Compound 114], the DC50 (Table 1) was below 100 nM. Same read-out and setting: the figure for `COc1cc(-c2cn(C)c(=O)c3cnccc23)cc(Cl)c1CN1CCC(C2CCN(c3ccc(NC4CCC(=O)NC4=O)cc3)CC2)CC1` (stereo not shown) [Compound 72] is below 100 nM; for `COc1cc(-c2cn(C)c(=O)c3cnccc23)cc(Cl)c1C(=O)N1CCC(C2CCN(c3ccc(NC4CCC(=O)NC4=O)nc3)CC2)CC1` (stereo not shown) [Compound 221] it is below 100 nM. Same read-out and setting: in the case of `COc1cc(-c2cn(C)c(=O)c3[nH]ncc23)cc(Cl)c1CN1CCC(C(=O)Nc2ccc(NC3CCC(=O)NC3=O)cc2F)CC1` (stereo not shown) [Compound 169, 1-[[2-chloro-6-methoxy-4-(6-methyl-7-oxo-1H-pyrazolo[3,4-c]pyridin-4-yl)phenyl]methyl]-N-[4-[(2,6-dioxo-3-piperidyl)amino]-2-fluoro-phenyl]piperidine-4-carboxamide] it was below 100 nM; in that of `COc1cc(-c2cn(C)c(=O)c3cnccc23)cc(OC)c1CN1CCN(C(=O)CN2CCC(c3ccc(NC4CCC(=O)NC4=O)cc3)CC2)CC1` (stereo not shown) [Compound 15], below 100 nM; in that of `Cn1cc(-c2ccc(CN3CCN(C(=O)CN4CCC(c5ccc(NC6CCC(=O)NC6=O)cc5)CC4)CC3)c(OC(F)(F)F)c2)c2cn[nH]c2c1=O` (stereo not shown) [Compound 20], below 100 nM. Still for that read-out and setting: the figure for `Cc1c(-c2ccc(CN3CCC(C4CCN(c5ccc(NC6CCC(=O)NC6=O)cc5F)CC4)CC3)nc2)cn(C)c(=O)c1C` (stereo not shown) [Compound 81] is below 100 nM; for `COc1cc(-c2cn(C)c(=O)c3[nH]ncc23)cc(Cl)c1CN1CCN(C(=O)CN2CCC(c3ccc(NC4CCC(=O)NC4=O)cc3)CC2)CC1` (stereo not shown) [Compound 12] it is below 100 nM.
